Assay [1] is described as follows: Prevention of iron-mediated oxidation of ascorbate (ascorbate-mediated reduction of Fe(III)). Conditions: ascorbate 100 μM, FeCl3 30 μM, pH 7.4, ligand/Fe ratios 0-3, 40 min. On the procedure: (§1) The iron chelators were tested for their ability to diminish the iron-mediated oxidation of ascorbate by the method of Dean and Nicholson (Free Radical Res. 20, 83-101 (1994)). Briefly, a solution of freshly prepared ascorbate (100 μM) in sodium phosphate buffer (5 mM, pH 7.4) was incubated in the presence of FeCl3 (30 μM) and chelator (ligand/Fe ratios varied from 0-3) for 40 min. The A265 was read at 10 and 40 min; the ΔA265 in the presence of ligand was compared to that in its absence.
The role of chelators in either inhibition or promotion of the Fenton reaction is related to their capacity to prevent Fe(III) from being reduced to Fe(II). Fe(II) is required for the reduction of H2O2 to HO. and HO^−. The assay involves spectrophotometrically monitoring the disappearance of ascorbate at pH 7.4 in the presence of FeCl3 and chelator at several ligand/Fe ratios. Under these conditions, ascorbate is oxidized to an L-ascorbyl radical anion. This anion then disproportionates to dehydroascorbic acid and ascorbate.
as §1, with “chelators nitrilotriacetic acid (NTA), 1,2-dimethyl-3-hydroxypyridin-4-one (L1), desferrioxamine B (DFO), (S)-4′-(HO)-DADMDFT, and (S,S)-1,11-Bis[5-(4-carboxyl-4,5-dihydro-1,3-thiazol-2-yl)-2,4-dihydroxyphenyl]-4,8-dioxaundecane (BDU)” for “chelators”, “Nicholson, Free” for “Nicholson (Free”, “20:” for “20,”, “(1994).” for “(1994)).”
The measurement examines the disappearance of ascorbate. It is known that DFO, a hydroxamate chelator that forms a 1:1 complex with Fe(III) at a formation constant of approximately 10^31 M^−1, prevents ascorbate-mediated reduction of Fe(III); it serves as a positive control in the present study. Both NTA and L1 promote ascorbate-mediated reduction of Fe(III) and serve as negative controls.

Assay [2] is described as follows: Quenching of the ABTS radical cation. How it is done:
The iron chelators were tested for their ability to quench the radical cation formed from 2,2′-azinobis(3-ethylbenzothiazoline-6-sulfonic acid) (ABTS) by the method of Re et al. in Free Radic. Biol. Med. 26, 1231-1237 (1999). Briefly, a stock solution of ABTS radical cation was generated by mixing ABTS (10 mM, 2.10 mL) with K2S2O8 (8.17 mM, 0.90 mL) in H2O and […] deep blue-green ABTS radical cation was diluted in sufficient sodium phosphate (10 mM, pH 7.4) to give an A734 of about 0.900. Test compounds were added to a final concentration ranging from 1.25 to 15 μM, and the decrease in A734 was read after 1, 2, 4 and 6 min. The reaction was largely complete by 1 min, but the data presented are based on a 6-min reaction time.
In this assay, a fairly stable radical cation, ABTS^+, was examined, and Trolox, an analog of vitamin E, was used as a positive control. Briefly, the procedure involved generating the blue-green chromophore by the reaction of ABTS with K2S2O8. The radical has absorption maxima at λ=415, 645, 734, and 815 nm. The change in absorbance at 734 nm was noted 6 min after addition of the chelator of interest at various concentrations, and the slope of the ΔA734 vs. ligand concentration line was calculated.
The iron chelators were tested for their ability to quench the radical cation formed from 2,2′-azinobis(3-ethylbenzothiazoline-6-sulfonic acid) (ABTS) by a published method (Re, R., et al., Free Radical Biol. Med. 26:1231-1237 (1999). Briefly, a stock solution of ABTS radical cation was generated by mixing ABTS (10 mM, 2.10 mL) with K2S2O8 (8.17 mM, 0.90 mL) in H2O and allowing the solution to sit in the dark at room temperature for 18 hours. This stock solution of deep blue-green ABTS radical cation was diluted in sufficient sodium phosphate (10 mM, pH 7.4) to give an A734 of about 0.900. Test compounds were added to a final concentration ranging from 1.25 to 15 μM, and the decrease in A734 was read after 1, 2, 4 and 6 min. The reaction was largely complete by 1 min, but the data presented are based on a 6-min. reaction time.
This radical cation decolorization assay utilizes the pre-formed radical monocation of 2,2′-azinobis(3-ethylbenzothiazoline-6-sulfonic acid) (ABTS) and has been used to evaluate the antioxidant capacity of a large number of compounds and mixtures. Briefly, the change in absorbance of the blue-green chromophore was recorded after the addition of the chelator of interest at each of the different concentrations, and the slope of the ΔA734 vs. ligand concentration line was calculated. The positive control for this reaction was Trolox, an analogue of vitamin E. The decrease in A734 as a function of ligand concentration is the comparitor among the five compounds evaluated. Trolox, L1, DFO, (S)-4′-(HO)-DADMDFT and BDU (Table 3). All four of the iron chelators performed better than Trolox; DFO≈BDU>(S)-4′-(HO)-DADMDFT>L1>Trolox. Thus, all of these ligands could be expected to serve as excellent radical scavengers.

A short description of assay [3]: Quenching of the ABTS radical cation. The following applies: Table 5; 6-min reaction, initial OD 1.000.
Assay [4] relates to acetic acid-induced colitis. As to the kind of experiment: Acetic acid-induced colitis in rats, densitometric image analysis of colonic damage. The following applies: for Damage (%): 650 μmol kg^−1 intracolonically 30 min before 4% acetic acid, mean ± standard deviation; for protection against acetic acid-induced colonic damage (in words): intracolonic, image analysis and MPO assay. It is filed as in vivo. How it is done:
(§2) The ligands were administered to the rats intracolonically as a suspension or solution in distilled water (2 mL) at a dose of 650 μmol kg^−1. The drug solutions were made fresh for each experiment. ROWASA®, the pharmaceutical preparation which contains 5-ASA (2 mL, 66.7 mg mL^−1) was given at a dose of 2318 μmol kg^−1. Control rats received distilled water (2 mL), administered intracolonically.
(§3) Animal care and experimental procedures were approved by the Institutional Animal Care and Use Committee. Colitis was induced by a modification of published methods. Briefly, the rats were anesthetized with sodium pentobarbital, 55 mg kg^−1 intraperitoneally. The abdomen was shaved and prepared for surgery. A midline incision was made, and the cecum and proximal colon were exteriorized. A reversible suture was placed at the junction of the cecum and proximal colon. The colon was rinsed with saline (10 mL), and the fluid and intestinal contents were gently expressed out the rectum. A gum-based rectal plug was inserted. The compound of interest, or distilled water in the control animals (2 mL), was injected intracolonically just distal to the ligature. The cecum and proximal colon were returned to the abdominal cavity; the compound was allowed to remain in the gut for 30 min. Then, the cecum and proximal colon were reexteriorized. The rectal plug was removed, and the drug was gently expressed out of the colon. Acetic acid (4%, 2 mL) was injected into the proximal colon over a 15-20-second time period. The acid was allowed to remain in the gut until one minute had passed (i.e., 40-45 seconds after the end of the acid administration). The no acid control rats received distilled water (2 mL), which was administered in the same manner as was the acetic acid. Air (10 mL) was then injected into the proximal colon to expel the acid or water. The cecal/proximal colon ligature was removed, the gut was returned to the abdominal cavity, and the incisions were closed. The animals were allowed to recover overnight and were sacrificed 24 hr later. The entire length of the colon was removed and assessed for damage both densitometrically and biochemically.
Gross damage was quantitated using Photoshop-based image analysis (version 5.0, Adobe Systems, Mountain View, Calif., USA) on an Apple iMac computer. The Magic Wand tool in the Select menu of Photoshop was used to place the cursor on an area of obvious damage. The tolerance level of the Magic Wand tool was set at 30. The damaged areas were automatically selected by using the Similar command in the Select menu. Then, the Eyedropper tool was used to determine the range of the damage in the highlighted areas. Individual colon images were copied to a blank Photoshop page. The Magic Wand tool, with a tolerance set to 100, was used to select all of the pixels in the colon sample. Then, the Histogram tool, which generates a graph in which each vertical line represents the number of pixels associated with a brightness level, was selected in the Image menu. The Red channel was then selected; the darker (damaged areas) appear on the left side of the histogram and the lighter (normal) areas are on the right side. The cursor was then placed on the histogram, the color range determined in an earlier step was selected, and the number of pixels encompassing that range and the percent damage were quantified automatically.
Two means were employed to assess the damage to the colon in the presence and absence of ligand, computer-based image analysis and colonic MPO measurement. The densitometric method removes much of the subjectivity involved in the simple scoring approaches. A digital image of the prepared colonic tissue is taken, and a clearly damaged segment is highlighted on the screen. Once the computer identifies all other segments of the intestine with the same or greater damage, a pixel number is generated; this number makes it possible to calculate the percentage of damaged intestine.

The subject of assay [5] is Myeloperoxidase (MPO) activity in colonic tissue. As to the kind of experiment: Myeloperoxidase (MPO) assay in colonic tissue of rats with acetic acid-induced colitis. Type of assay: in vivo. Conditions: 650 μmol kg^−1 intracolonically 30 min before 4% acetic acid, mean ± standard deviation. On the procedure: as §2, §3
The activity of MPO was measured in colonic tissue by a modification of the method of Krawisz et al. in Gastroenterology 87, 1344-1350 (1984). Each excised colon was homogenized in 9 volumes of homogenization buffer (0.5% hexadecyltrimethylammonium bromide (HDTMA) in 50 mM sodium acetate, pH 6.0); this homogenate was centrifuged at 1200 g for 20 min at 4° C. A sample of the supernatant (1.8 mL) was transferred into a microcentrifuge tube and stored frozen at −20° C. for up to one week. Prior to assay, the thawed aliquot was centrifuged at about 10,000 g for 15 minutes at 4° C. The final supernatant (33 μL) was added to a solution of o-dianisidine HCl (0.17 mg mL^−1 in 50 mM sodium acetate, pH 6.0, made fresh daily and filtered immediately before use) (950 μL), the mixture was vortexed, and the peroxidase reaction was initiated by the addition of H2O2 to 50 mM sodium acetate, pH 6.0, made fresh daily (16.7 μL). The A470 at room temperature (ca. 23° C.) was read at 15-second intervals for 2 min. The rates were assessed graphically and are presented as change in milliabsorbance units (ΔmAU)/min per g tissue. Under these conditions, 0.1 “Unit” of purified human leukocyte myeloperoxidase (Sigma M-6908) produced a ΔA470 of about 400 mAU/min.
The biochemical measurement involves measuring the level of MPO in a sample of homogenate of the whole rat colon. When the colon is damaged by the acetic acid, there is an extravasation of neutrophils. The extent of this infiltration can serve as a quantitative marker for tissue damage. Although other leukocytes, such as eosinophils and monocytes, also contribute to the inflammatory response, their contribution is small; the majority of the cells recruited during the acute inflammatory response are neutrophils. […]

The mark [6] stands for this setting: Table 1, A734, six-minute reaction, pH 7.4, 1.25 to 15 μM.

Marks after values point to notes of the source that are not given here.

`COc1ccc(C2=NC(C)(C(=O)O)CS2)c(O)c1` (centres unmarked) [4′-(CH3O)-DADFT, 4′-methoxydesazadesferrithiocin]: the “effect on ascorbate-mediated reduction of Fe(III) (in words)” value in assay [1] is recorded as “slowed Fe(III) reduction considerably”. Also, the “radical trapping compared with Trolox (in words)” value in assay [2] (method of Example 6) was “as effective as Trolox”. Besides, the “Slope × 10^3 OD units/μM (ABTS radical cation quenching)” value (“Slope × 10^3 OD units/μM” for short) in assay [3] was −36 × 10^3 OD units/μM.
`O=C(O)C1CSC(c2ncccc2O)=N1` (centres unmarked) [DMDFT, desmethyldesferrithiocin]: the “Damage (%)” value in assay [4] is on record as 61 ± 15%. For the same compound, the “Slope × 10^3 OD units/μM” value in assay [2] (setting [6]) is listed as −1.3 × 10^3 OD units/μM. In addition, the MPO activity in assay [5] is recorded as 39229 ± 27109 mAU min^−1g of colonic tissue^−1.
`CN(O)C(=O)[C@@]1(C)CSC(c2ccc(O)cc2O)=N1` [4′-(HO)-DADFT-NMH]: in assay [4], the “Damage (%)” value is given as 46 ± 23% and the “protection against acetic acid-induced colonic damage (in words)” value is given as “moderately effective”. Further, the “Slope × 10^3 OD units/μM” value in assay [2] (setting [6]) was −141.4 × 10^3 OD units/μM. For the same compound, in assay [5], the MPO activity is on record as 41021 ± 35525 mAU min^−1g of colonic tissue^−1.
`Cc1ccc(O)c(C2=NC(C(=O)O)CC2)c1` (centres unmarked) [PCA, 3,4-dihydro-5-(2-hydroxy-5-methylphenyl)-2H-pyrrole-2-carboxylic acid]: in assay [4], the “Damage (%)” value amounted to 44 ± 11%. Also, the “Slope × 10^3 OD units/μM” value in assay [2] (setting [6]) was −3.3 × 10^3 OD units/μM. Moreover, in assay [5], the MPO activity is given as 29942 ± 11255 mAU min^−1g of colonic tissue^−1.
In the case of `Cc1c(C)c2c(c(C)c1O)CCC(C)(C(=O)O)O2` (centres unmarked) [Trolox, reference compound], the “Slope × 10^3 OD units/μM” value in assay [2] (setting [6]) is reported as −36.6 × 10^3 OD units/μM; in assay [2] (Table 3, A734, 6-min reaction, values marked b are the inventors' unpublished results) it was −37^b × 10^3 OD units/μM; in assay [3] it was −37 × 10^3 OD units/μM.
`CN(O)C(=O)[C@H]1CSC(c2ccc(O)cc2O)=N1` [4′-(HO)-DADMDFT-NMH]: the “Damage (%)” value in assay [4] was determined as 39 ± 11%. Besides, in assay [2] (setting [6]), the “Slope × 10^3 OD units/μM” value is −135.5 × 10^3 OD units/μM. Besides, the MPO activity in assay [5] is listed as 18426 ± 20930 mAU min^−1g of colonic tissue^−1.
Take `CN(O)C(=O)C1CSC(c2ncccc2O)=N1` (centres unmarked) [DMDFT-NMH, desmethyldesferrithiocin-N-methyl-hydroxamate]: in assay [4], the “Damage (%)” value was found to be 22 ± 17% and the “protection against acetic acid-induced colonic damage (in words)” value is “most effective”. Besides, in assay [2] (setting [6]), the “Slope × 10^3 OD units/μM” value is −47.4 × 10^3 OD units/μM. Moreover, the MPO activity in assay [5] is listed as 14406 ± 8683 mAU min^−1g of colonic tissue^−1.

Source of the values: patent US20050234113A1, “Antioxidant and radical scavenging activity of synthetic analogs of desferrithiocin” (University of Florida Research Foundation, Inc., priority 2002, published 2005).
